{"source": "patent US11253535B2", "about": "“Carboline derivatives or phosphorous derivatives for the treatment of muscular myopathies and traumatic injuries to muscles” (Centre National de la Recherche Scientifique (C.N.R.S), priority 2015, dated 2022)", "key": {"DMD myotubes": {"test_system": "DMD myotubes", "assay": "Spontaneous calcium activity (calcium waves) in DMD patient myotubes, Fluo-4 AM, confocal microscopy", "format": "cell-based, human", "details": "for reduction in the amplitude of the calcium waves (oscillations): 100 μM; for reduction in the number of myotubes with spontaneous calcium activity: DMD myotubes preincubated, 100 μM (FIG. 5D, 8D)", "from_the_text": "(A) Characterization of spontaneous calcium waves in DMD myotubes. Healthy myotubes mostly show low activity (13% of myotubes), while 49% of untreated DMD myotubes show significant spontaneous calcium activity. The amplitude of calcium oscillations in untreated DMD myotubes is increased by 60% compared with healthy myotubes. (B) Examples of trace recordings of a representative region of interest in myotubes and DMDs. (C) Amplitude of spontaneous calcium oscillations in DMD myotube cultures in the presence of modulators of the CD38 enzyme pathway. […] Similarly, 8-Bromo-cADPR (cADPR antagonist, 100 μM, n=48) and NED-19 (NAADP antagonist, 100 μM, n=167) reduce by 40% the amplitude of calcium oscillations in DMD myotubes. […] The t-test was used with a significance level set at 0.05, with a *P<0.05; **P<0.01, ***P<0.001, n=cell number.\n(A) DMD myotubes loaded with a calcium probe (Fluo 4). Examples of trace recordings of a representative region of interest in control DMD myotubes (B) and treated for 30 min with NAADP (100 μM) (C). […] The chi square (proportion of active cells) and t-test (mean peak amplitude) were used with a significance level set at 0.05, with a *P<0.05 ***P<0.001.\nIn parallel with mouse cardiomyocyte studies, two lines of human skeletal myotubes (a patient cell line with DMD and a control line) were used. Human myotubes are particularly suitable for evaluating a pharmacological tool from a therapy perspective. The inventors first tested the CZ-27, the NED-19 antagonist of NAADP (the most efficient messenger produced by CD38), and 8-bromo-cADP-ribose (a cADP-ribose antagonist produced by CD38. The cells were loaded with Fluo-4 AM and recorded by confocal microscopy.\nThe amplitude of the calcium waves was reduced by 40% (see FIG. 5A) compared to that of the untreated DMD myotubes. […] A 40% reduction in the amplitude of the calcium waves is also observed when the cells are treated with 100 μM of 8-Bromo-cADPR or NED-19 (see FIG. 5C). When cultures of DMD myotubes were preincubated with NED-19, the number of myotubes with spontaneous calcium activity was reduced in a dose-dependent manner for concentrations of 2 to 300 μM (60% to 100 μM reduction) (see FIG. 5D). In addition, when cultures of DMD myotubes were preincubated with NAADP at 100 μM, the number of myotubes with spontaneous calcium activity was reduced (75% reduction with 100 μM NAADP) (see FIG. 8D)."}, "mdx mouse cardiomyocytes": {"test_system": "mdx mouse cardiomyocytes", "assay": "Spontaneous calcium activity (spikes and calcium waves) of mdx mouse cardiomyocytes", "format": "cell-based", "from_the_text": "FIG. 4: Frequency of spontaneous spikes and calcium waves in WT, mdx and mdx/CD38^−/− mouse cardiomyocytes. 1-way-ANOVA test with a Bonferroni correction. Significance level set at 0.05, with a *P<0.05; **P<0.01, ***P<0.001. (A) The spontaneous calcium activity of cardiomyocytes (calcium spikes and waves) of the mdx/CD38^−/− mouse is reduced by 80% compared to the values of mdx mice. (B) The application of the CD38 CZ-27 antagonist to mdx mouse cardiomyocytes reduces the frequency of spikes by about 70%.\nEvaluation of the Spontaneous Calcium Activity of Mouse Cardiomyocytes:\nIn the mdx cardiomyocyte, it was shown that the calcium reserves of the sarcoplasmic reticulum were reduced, probably due to Ca^2+ leakage through RyRs that are abnormally sensitized.\nIn order to study the impact of the absence of CD38 on these parameters, the different parameters of spontaneous spike activity and calcium waves were studied. […] The increased frequency of these spontaneous calcium events may lead to arrhythmias (when they spread to the whole heart tissue) as well as to a long-term cardiac hypertrophy associated with a change in the Ca^2+-dependent gene expression.\nThe protective effect of the CD38 deletion in mice was then observed by comparing cardiomyocytes of the double-mutant model with cardiomyocytes of mdx mice. The spontaneous calcium activity of mdx/CD38^−/− cardiomyocytes is very small compared to mdx (spikes and calcium waves, see FIG. 4A). […] CD38 deletion in mdx/CD38^−/− favor its protective role in DMD, with the reversal of many deleterious parameters in mdx mice (spontaneous calcium spikes and waves, sensitization of RyRs)."}, "[1]": {"details": "DMD myotubes, vs untreated DMD myotubes (FIG. 5C)"}}}
{"smiles": "N=c1c2nc(Br)n3c2ncn1[C@H]1O[C@H](COP(=O)(O)OP(=O)(O)OC[C@H]2O[C@@H]3C(O)C2O)C(O)C1O", "note": "(some centres unmarked) [8-Bromo-cADPR, 8-bromo adenosine diphosphate cyclic ribose]", "values": [{"measurement": "reduction in the amplitude of the calcium waves (oscillations)", "setting": "DMD myotubes; [1]", "result": 40, "unit": "%"}]}
{"smiles": "CCCCOP(=O)(O)OC[C@@H]1O[C@H]([n+]2cccc(C(N)=O)c2)C(F)C1O", "note": "(stereo partly drawn) [CZ-27, 2′-deoxy-2′-fluoro-β-nicotinamide arabinofuranoside-5′-(n-butyl) phosphate]", "values": [{"measurement": "frequency of spontaneous calcium spikes", "setting": "mdx mouse cardiomyocytes; mdx mouse cardiomyocytes (FIG. 4B)", "result": "reduction in spikes frequency"}, {"measurement": "reduction of the frequency of spontaneous calcium spikes", "setting": "mdx mouse cardiomyocytes; mdx mouse cardiomyocytes, application of the compound (FIG. 4B)", "result": "about 70%"}, {"measurement": "amplitude of spontaneous calcium oscillations", "setting": "DMD myotubes; DMD myotubes (FIG. 5C)", "result": "strongly reduces"}, {"measurement": "reduction in the amplitude of the calcium waves, dose-dependent", "setting": "DMD myotubes; DMD myotubes preincubated with 10, 50 and 100 μM, vs untreated DMD myotubes (FIG. 5C)", "result": "up to 80%"}]}
{"smiles": "Nc1ncnc2c1ncn2[C@@H]1O[C@H](COP(=O)(O)OP(=O)(O)OC[C@H]2O[C@@H]([n+]3cccc(C(=O)[O-])c3)[C@H](O)[C@@H]2O)[C@@H](O)[C@H]1OP(=O)(O)O", "note": "[NAADP, nicotinic acid adenine dinucleotide phosphate]", "values": [{"measurement": "reduction in the number of myotubes with spontaneous calcium activity", "setting": "DMD myotubes", "result": 75, "unit": "%"}, {"measurement": "percentage of cells exhibiting spontaneous calcium activity", "setting": "DMD myotubes; DMD myotubes treated 30 min, 100 μM (FIG. 8D)", "result": "greatly reduced"}, {"measurement": "amplitude of the spontaneous calcium oscillations", "setting": "DMD myotubes; DMD myotubes treated 30 min, 100 μM (FIG. 8E)", "result": "strongly reduced"}]}
{"smiles": "COc1ccc([C@H]2N[C@H](C(=O)O)Cc3c2[nH]c2ccccc32)cc1CN1CCN(c2ccccc2F)CC1", "note": "[NED-19, (1R, 3S)-1-[3-[[4-(2-fluorophenyl)piperazin-1-yl]methyl]-4-methoxyphenyl]-2,3,4,9-tetrahydro-1H-pyrido[3,4-b]indole-3-carboxylic acid]", "values": [{"measurement": "reduction in spontaneous calcium wave activity", "setting": "mdx mouse cardiomyocytes; mdx mouse cardiomyocytes (FIG. 4C)", "result": "about 90%"}, {"measurement": "number of cardiomyocytes exhibiting spontaneous calcium activity", "setting": "mdx mouse cardiomyocytes; mdx mouse cardiomyocytes incubated with compound (not shown)", "result": "significant reduction"}, {"measurement": "frequency of spontaneous calcium waves", "setting": "mdx mouse cardiomyocytes; mdx mouse cardiomyocytes, rare cases of spontaneous activity in presence of compound (FIG. 4C)", "result": "greatly reduced"}, {"measurement": "reduction in the number of myotubes with spontaneous calcium activity", "setting": "DMD myotubes", "result": 60, "unit": "%"}, {"measurement": "reduction in the amplitude of the calcium waves (oscillations)", "setting": "DMD myotubes; [1]", "result": 40, "unit": "%"}, {"measurement": "percentage of cells with spontaneous calcium activity", "setting": "DMD myotubes; DMD myotubes, 2-300 μM (FIG. 5D)", "result": "strongly reduced dose-dependently"}]}
